Columns and labels:
[1] = system: A431 squamous cell carcinoma xenografts; test: PET imaging of tracer uptake in A431 tumoured mice; type: in vivo, Balb/c Nude mice; details: intravenous, PET at 90 minutes post-tracer injection
Experimental: (§1) In vivo imaging studies were performed on a Phillips Allegro™ small animal imaging system in mice implanted with A431 squamous cell carcinoma and HT-29 colon carcinoma xenografts on the left leg of Balb/c Nude mice. Approximately 400 μCi of each of D and L ^18FPM in 100 μl saline were injected intravenously and PET imaging performed at 90 minutes post-tracer injection. A comparison with FDG (fluorodeoxyglucose) uptake was also performed.

[2] = system: HT-29 colon carcinoma xenografts; test: PET imaging of tracer uptake in HT29 tumoured mice; type: in vivo, Balb/c Nude mice; details: intravenous, PET at 90 minutes post-tracer injection
Experimental: as §1

[3] = Radiochemical purity and stability in aqueous formulations (HPLC); type: physicochemical
Experimental: The stability of [^18F]-L-FPHCys and [^18F]-D-FPHCys formulated in each of the following solutions: • 1) 5% EtOH/95% phosphate buffer, pH 6, 0.15 M (HLPC solvent) • 2) saline • 3) Dulbecco's phosphate buffered saline, pH 7 • 4) Phosphate buffer, pH 7. were analysed by HPLC using a Gemini 150×4.6 mm, 5 μm, eluting with 100% Phosphate Buffer, pH 11.5, 0.05 M at 1 mL/min, λ=226 nm.

[4] = system: MCF-7 (breast adenocarcinoma) tumour cells; test: Cell uptake study, MCF-7; type: cell-based, human; details: for uptake, rank among the cell lines: MCF-7 breast tumour cell line, 37° C., 2-240 min; for time for which uptake increased before staying at the same level: MCF-7 cell line
Experimental: (§2) The human A375 (malignant melanoma), A431 (epidermoid carcinoma), HT29 (colorectal adenocarcinoma), MCF-7 (breast adenocarcinoma), MDA-MB-231 (breast adenocarcinoma), PC-3 (prostate adenocarcinoma) tumour cells were grown in RPMI-1640 medium supplemented with 10% fetal bovine serum (FBS) and 2 mM L-glutamine. The human H460 (large cell lung carcinoma) cell line was grown in RPMI-1640 supplemented with 10% FBS, 1 mM L-glutamine and 1 mM sodium pyruvate. The MiaPaCa2 human pancreatic carcinoma cell line was grown in Dulbecco's Modified Eagle medium supplemented with 10% FBS, 2.5% horse serum, 1 mM L-glutamine and 1 mM sodium pyruvate. The human U87MG glioblastoma cell line was cultured in Minimum Essential Medium supplemented with 10% FBS, 2 mM L-glutamine and 1 mM sodium pyruvate. Cells were maintained in 175 cm^2 flasks in a 5% CO2, 37° C. humidified incubator. Cells were passaged routinely every 7 days and the media changed twice weekly.
(§3) One day prior to the experiments, cell cultures were trypsinised with a solution of 0.05% trypsin in PBS without Ca^2+ and Mg^2+ and containing 0.02% EDTA. Cells were seeded in 24-well culture dishes in complete medium and left to attach overnight. For MCF-7 cells, 3×10^5 cells were seeded, for all other cell lines, 2.5×10^5 cells were seeded.
(§4) On the day of the study, the cells were counted and the viability assessed in triplicate for each cell line. Before the incubation with radiolabelled FPM, cells were washed once with PBS containing Ca^2+ and Mg^2+ to remove all traces of the culture medium. The radiolabelled FPM was formulated in PBS containing Ca^2+ and Mg^2+. Aliquots of 500 μL (˜10 μCi) of freshly prepared FPM were added and the cells were incubated in triplicate at 37° C. for 2, 15, 30, 60, 120, 180 and 240 min. After stopping the tracer uptake with 1 mL of ice-cold PBS, cells were solubilised with 500 μL of 0.2N NaOH and the activity was measured with a gamma counter. The results were expressed as percent of applied dose per 1×10^5 cells.

[5] = system: HT29 (colorectal adenocarcinoma) tumour cells; test: Cell uptake study, HT29; type: cell-based, human; details: HT29 colon cell line
Experimental: as §2, with “weekly. […]” for “weekly.”
(§5) On the day of the study, the cells were counted and the viability assessed in triplicate for each cell line. […] After stopping the tracer uptake with 1 mL of ice-cold PBS, cells were solubilised with 500 μL of 0.2N NaOH and the activity was measured with a gamma counter. The results were expressed as percent of applied dose per 1×10^5 cells.

[6] = system: MiaPaCa2 human pancreatic carcinoma cell line; test: Cell uptake study, MiaPaCa2; type: cell-based; details: MiaPaCa2 tumour cell line
Experimental: as §2, with “weekly. […]” for “weekly.”
as §5

[7] = system: various types of tumour cells; test: Cell uptake study, panel of tumour cell lines; type: cell-based, human; details: for uptake into tumour cells: particularly MCF-7, U87MG, MiaPaCa2 and A375 cell lines
Experimental: as §2, §3, §4

H460 cells = test: Competitive inhibition study of tracer uptake, H460; type: cell-based, human; details: MeAIB 12.5 mmol/L aliquot, 30 min, 37° C.
Experimental: as §2, with “weekly. […]” for “weekly.”
as §5, with “cells. The percentage of uptake in the treatment groups, relative to the control group was determined.” for “cells.”

[8] = system: sodium-independent L type transport system in tumour cell lines; test: Competitive inhibition study of tracer uptake, all cell lines; type: cell-based, human; details: for tracer uptake in the presence of BCH: all cell lines, BCH 12.5 mmol/L aliquot, 30 min, 37° C.; for transport mechanism of cell uptake: from inhibition by BCH and MeAIB
Experimental: as §2, §3
Inhibitor studies were carried out to investigate the transport mechanism involved in the uptake of FPM in tumour cells. The following amino acid transport inhibitors were used; 2-amino-bicyclo[2.2.1]-heptane-2-carboxylic acid (BCH) and N-methyl-α-aminoisobutyric acid (MeAIB) for the sodium-independent L type transport system and the A type amino acid transport system respectively.
On the day of the study, the cells were counted and the viability assessed in triplicate for each cell line. Before the incubation with radiolabelled FPM, cells were washed once with PBS containing Ca^2+ and Mg^2+ to remove all traces of the culture medium. Aliquots of 400 μL of inhibitor (12.5 mmol/L in PBS with Ca^2+ and Mg^2+) or PBS (for controls) were added to cells prior to the addition of radiolabelled FPM. Aliquots of 100 μL (about 10 μCi) of freshly prepared FPM were added and the cells were incubated in triplicate at 37° C. for 30 min. After stopping the tracer uptake with 1 mL of ice-cold PBS, cells were solubilised with 500 μL of 0.2N NaOH and the activity was measured with a gamma counter. The results were expressed as percent of applied dose per 1×10^5 cells. The percentage of uptake in the treatment groups, relative to the control group was determined.

MiaPaCa2 cells = test: Competitive inhibition study of tracer uptake, MiaPaCa2; type: cell-based, human; details: MeAIB 12.5 mmol/L aliquot, 30 min, 37° C.
Experimental: as §2, with “weekly. […]” for “weekly.”
as §5, with “cells. The percentage of uptake in the treatment groups, relative to the control group was determined.” for “cells.”

HT29 cells = test: Competitive inhibition study of tracer uptake, HT29; type: cell-based, human; details: MeAIB 12.5 mmol/L aliquot, 30 min, 37° C.
Experimental: as §2, with “weekly. […]” for “weekly.”
as §5, with “cells. The percentage of uptake in the treatment groups, relative to the control group was determined.” for “cells.”

[9] = cited from earlier work

Row | Compound | percent injected dose (% ID) in tumour [1] | tumour to background ratio [1] | percent injected dose (% ID) in tumour [2] | tumour to background ratio [2] | uptake, rank among the cell lines [4] | time for which uptake increased before staying at the same level [4] | uptake, rank among the cell lines [5] | time of peak uptake [6] | uptake into tumour cells [7] | tracer uptake in the presence of MeAIB, % of control uptake (H460 cells) | tracer uptake in the presence of BCH [8] | transport mechanism of cell uptake [8] | further results
1 | S-(3-[^18F]fluoropropyl)-D-homocysteine [[^18F]-D-FPHCys] | 1.96% | 7.86 | 0.75% | 2.10 | highest | 120 min | lowest uptake | 30 min | high uptake | 76% | significantly inhibited | predominantly taken up by cells via the sodium-independent L type transport system | % ROI of product peak, F18 chromatogram (radiochemical purity) ([3]; 5% EtOH/95% phosphate buffer, pH 6, 0.15 M (HPLC solvent), t=0): 99.74%; % ROI of product peak, F18 chromatogram (radiochemical purity) ([3]; 5% EtOH/95% phosphate buffer, pH 6, 0.15 M (HPLC solvent), t=4 h): 99.06%; % ROI of product peak, F18 chromatogram (radiochemical purity) ([3]; Dulbecco's phosphate buffered saline, pH 7, t=0): 98.97%; % ROI of product peak, F18 chromatogram (radiochemical purity) ([3]; Dulbecco's phosphate buffered saline, pH 7, t=4 h): 96.20%; % ROI of product peak, F18 chromatogram (radiochemical purity) ([3]; PBS (phosphate buffer, pH 7), t=0): 98.44%; % ROI of product peak, F18 chromatogram (radiochemical purity) ([3]; PBS (phosphate buffer, pH 7), t=4 h): 96.51%; % ROI of product peak, F18 chromatogram (radiochemical purity) ([3]; saline, t=0): 99.30%; % ROI of product peak, F18 chromatogram (radiochemical purity) ([3]; saline, t=4 h): 95.23%
2 | N[C@@H](CCSCCC[18F])C(=O)O [[^18F]FPHCys, S-(3-[^18F]fluoropropyl)homocysteine] |  |  |  |  |  |  |  |  |  |  |  |  | stability in an aqueous environment compared with the S-ethyl homologue ([3]; aqueous environment): substantially more stable
3 | N[C@@H](CCSCCC[18F])C(=O)O [[^18F]-L-FPHCys, S-(3-[^18F]fluoropropyl)-L-homocysteine] | 2.12% | 5.39 | 2.13% | 2.45 | highest | 120 min | lowest uptake | 30 | high uptake | 70% | significantly inhibited | predominantly taken up by cells via the sodium-independent L type transport system | uptake compared with the other enantiomer ([7]; all cell lines): higher; tracer uptake in the presence of MeAIB, % of control uptake (MiaPaCa2 cells): 79%; tracer uptake in the presence of MeAIB, % of control uptake (HT29 cells): 84%
4 | OC[C@H]1OC(O)[C@H]([18F])[C@@H](O)[C@@H]1O (stereo partly drawn) [FDG, [^18F]Fluoro-2-deoxy-D-glucose, reference compound] | 5.84% | 3.33 | 2.37% | 2.11 |  |  |  |  |  |  |  |  | 
5 | N[C@@H](CCSCC[18F])C(=O)O [[^18F]FEHCys, S-(2-[^18F]fluoroethyl)-L-homocysteine] |  |  |  |  |  |  |  |  |  |  |  |  | stability in aqueous systems [9]: considerable instability

Reference: patent publication US20120093726A1, “Radiolabeled Fluorine Derivatives of Methionine” (priority 2009, published 2012)
